Results as given in patent US6177449A, “Sulfonamide-substituted chromans, processes for their preparation, their use as a medicament or diagnostic, and pharmaceutical preparations comprising them” (Aventis Pharma Deutschland GmbH, priority 1997, dated 2001).

The molecules below were run against T1, human IsK protein (Homo sapiens, UniProt P15382) (assay: Inhibition of IsK current in Xenopus oocytes expressing human IsK protein (two-microelectrode voltage-clamp)). Conditions: human IsK expressed in Xenopus oocytes; activated to -10 mV, 15 s voltage jumps, room temperature; Hill equation.
T1 construct: only IsK injected, pore from oocyte's endogenous KCNQ1; two-microelectrode voltage clamp
Assay type: cell-based

T1 sequence (P70057 whole entry partner): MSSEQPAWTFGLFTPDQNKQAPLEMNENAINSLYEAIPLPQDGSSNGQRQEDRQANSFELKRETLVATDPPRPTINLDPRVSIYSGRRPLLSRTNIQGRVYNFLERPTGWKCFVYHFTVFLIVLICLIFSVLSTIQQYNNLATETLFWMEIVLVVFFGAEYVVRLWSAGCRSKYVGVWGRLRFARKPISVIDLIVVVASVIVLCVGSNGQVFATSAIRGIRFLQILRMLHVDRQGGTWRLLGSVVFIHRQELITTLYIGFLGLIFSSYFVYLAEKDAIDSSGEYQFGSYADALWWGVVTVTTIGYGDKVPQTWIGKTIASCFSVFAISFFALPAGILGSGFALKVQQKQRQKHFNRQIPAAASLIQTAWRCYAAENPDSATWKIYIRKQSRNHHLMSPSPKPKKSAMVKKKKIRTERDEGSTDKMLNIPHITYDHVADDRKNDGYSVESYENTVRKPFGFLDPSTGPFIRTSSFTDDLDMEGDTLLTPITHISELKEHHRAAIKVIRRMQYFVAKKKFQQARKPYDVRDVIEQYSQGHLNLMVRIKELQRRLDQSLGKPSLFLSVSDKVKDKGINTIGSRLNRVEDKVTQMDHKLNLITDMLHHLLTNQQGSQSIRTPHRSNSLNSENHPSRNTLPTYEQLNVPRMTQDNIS

| IC50 [µM] | Structure (SMILES) |
| --- | --- |
| 0.43 | CCOCCCOc1ccc2c(c1)C(N(CC)S(C)(=O)=O)CC(C)(C)O2 (stereo not drawn) [Example 1, N-[6-(3-Ethoxypropoxy)-2,2-dimethylchroman-4-yl]-N-ethyl-methanesulfonamide] |
| 1.71 | CCN(C1CC(C)(C)Oc2ccc(OCCCCCO)cc21)S(C)(=O)=O (stereo not drawn) [Example 2, N-Ethyl-N-[6-(5-hydroxypentyloxy)-2,2-dimethylchroman-4-yl]methanesulfonamide] |
| 6.36 | CCN(C1CC(C)(C)Oc2ccc(OCCCCC(=O)NCCOC)cc21)S(C)(=O)=O (stereo not drawn) [Example 3, 5-[4-(Ethylmethanesulfonylamino)-2,2-dimethylchroman-6-yloxy]pentanoic acid (2-methoxyethyl)amide] |
| 7.43 | CCN(C1CC(C)(C)Oc2ccc(OCCO)cc21)S(C)(=O)=O (stereo not drawn) [Example 8, N-Ethyl-N-[6-(2-hydroxyethoxy)-2,2-dimethylchroman-4-yi]-methanesulfonamide] |
| 0.69 | CCOCCOc1ccc2c(c1)C(N(CC)S(C)(=O)=O)CC(C)(C)O2 (stereo not drawn) [Example 9, N-[6-(2-Ethoxyethoxy)-2,2-dimethylchroman-4-yl]-N-ethylmethanesulfonamide] |
| ~8 | CCN(C1CC(C)(C)Oc2ccc(OCc3cc(OC)ccn3)cc21)S(C)(=O)=O (stereo not drawn) [Example 10, N-Ethyl--N-[6-(((4-methoxypyridin-2-yl)methyl)oxy)-2,2-dimethylchroman-4-yl]methanesulfonamide] |
| 0.32 | CCOCCCOc1ccc2c(c1)C(N(C)S(C)(=O)=O)CC(C)(C)O2 (stereo not drawn) [Example 15, N-[6-(3-Ethoxypropoxy)-2,2-dimethylchroman-4-yl]-N-methylmethanesulfonamide] |
| ~1 | CCOCCOc1ccc2c(c1)C(N(CCOC)S(C)(=O)=O)CC(C)(C)O2 (stereo not drawn) [Example 17, N-[6-(2-Ethoxyethoxy)-2,2-dimethylchroman-4-yl]-N-(2-methoxyethyl)methanesulfonamide] |
| 1.74 | CCOCCCOc1ccc2c(c1)C(N(CCOC)S(C)(=O)=O)CC(C)(C)O2 (stereo not drawn) [Example 21, N-[6-(3-Ethoxypropoxy)-2,2-dimethylchroman-4-yl]-N-(2-methoxyethyl)methanesulfonamide] |
| ~3 | CCCN(C1CC(C)(C)Oc2ccc(OCC(=O)NCCOC)cc21)S(=O)(=O)CC (stereo not drawn) [Example 22, 2-[4-(Ethanesulfonyl-(1-propyl)amino)-2,2-dimethylchroman-6-yloxy]-N-(2-methoxyethyl)acetamide] |
| 2.49 | CCCN(C1CC(C)(C)Oc2ccc(OCC(=O)NCCCOCC)cc21)S(=O)(=O)CC (stereo not drawn) [Example 23, 2-[4-(Ethanesulfonyl-(1-propyl)amino)-2,2-dimethylchroman-6-yloxy]-N-(3-ethoxypropyl)acetamide] |
| 0.38 | CCS(=O)(=O)N(C)C1CC(C)(C)Oc2ccc(-c3cccs3)cc21 (stereo not drawn) [Example 26, Ethanesulfonic acid (2,2-dimethyl-6-thiophen-2-yl-chroman-4-yl)methylamide] |
